Non-standard residues stand in square brackets, D forms with d. Residues, ends and D or L forms follow the SMILES beside them. *: point of attachment. FITC = O=C1OC2(c3ccc(O)cc3Oc3cc(O)ccc32)c2ccc(NC(=S)*)cc21; pT = C[C@@H](OP(=O)(O)O)[C@H](N)C(=O)O; pS = N[C@@H](COP(=O)(O)O)C(=O)O
Tests used:
Format in all cases: binding
Settings in all cases: 14-3-3 titrated 80 to 0.003418, three replicates
[1] = target: T1, 14-3-3β (Homo sapiens, UniProt P31946); experiment: fluorescence polarization (FP) with FITC-labeled phosphopeptides, 14-3-3β
T1 sequence (P31946 1-246): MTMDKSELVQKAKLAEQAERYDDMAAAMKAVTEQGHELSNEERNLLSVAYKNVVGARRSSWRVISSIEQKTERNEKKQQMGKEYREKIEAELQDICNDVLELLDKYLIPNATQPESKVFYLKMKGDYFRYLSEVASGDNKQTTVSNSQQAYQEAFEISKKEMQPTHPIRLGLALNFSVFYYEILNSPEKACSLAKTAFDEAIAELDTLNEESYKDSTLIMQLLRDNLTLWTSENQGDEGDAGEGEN
Protocol: (§1) Fig. 4 14-3-3 isoform binding specificity of Nedd4-2 phosphomotifs. Binding of FITC-labeled phosphopeptides with 14-3-3 binding motifs of Nedd4-2 (pSer^342, pThr^367 or pSer^448) to all human 14-3-3 isoforms was characterized by FP titrations. The binding affinities of these peptides were determined by fitting FP data to a one-site binding model. The corresponding sequences of these peptides are shown at the top. Background polarization was subtracted from all values. Results are expressed as mean ± SD (n = 3). Error bars are not visible if they are smaller than the size of the symbol.
(§2) The FP assay was performed using a CLARIOstar microplate reader (BMG Labtech, […]) on 384-well black low-volume flat-bottom plates (Corning, New York, USA) in a buffer containing 10 mM HEPES (pH 7.4), 150 mM NaCl, 0.1% (v/v) Tween 20 and 0.1% (w/v) BSA. […] The excitation and emission wavelengths were 482 nm and 530 nm, respectively. The KD values were determined as the mean of three independent measurements using GraphPad Prism version 8.0.1 for Windows, GraphPad Software, La Jolla California USA, www.graphpad.com.
(§3) Results from the FP assay (Fig. 4) and immunoblot (Supplementary Fig. S1) are represented as means ± SD from three replicates as indicated in the figure legend. Statistical analysis for the data from immunoblot were performed using Graph-Pad Prism 8.4. Student’s t-test was used for comparison of relative changes of samples with and without 14-3-3η at selected timepoints (ns, non-significant P > 0.05; *, P < 0.05).

[2] = target: T2, 14-3-3ζ (Homo sapiens, UniProt P63104); experiment: fluorescence polarization (FP) with FITC-labeled phosphopeptides, 14-3-3ζ
T2 sequence (P63104 1-245): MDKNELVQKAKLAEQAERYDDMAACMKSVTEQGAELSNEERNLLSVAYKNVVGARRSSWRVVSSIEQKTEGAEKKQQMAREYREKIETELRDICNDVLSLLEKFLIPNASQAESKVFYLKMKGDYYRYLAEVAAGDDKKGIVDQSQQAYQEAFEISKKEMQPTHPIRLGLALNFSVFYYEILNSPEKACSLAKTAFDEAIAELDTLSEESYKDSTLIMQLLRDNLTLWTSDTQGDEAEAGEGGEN
Protocol: as §1, §2, §3

[3] = target: T3, 14-3-3γ (Homo sapiens, UniProt P61981); experiment: fluorescence polarization (FP) with FITC-labeled phosphopeptides, 14-3-3γ
T3 sequence (P61981 1-247): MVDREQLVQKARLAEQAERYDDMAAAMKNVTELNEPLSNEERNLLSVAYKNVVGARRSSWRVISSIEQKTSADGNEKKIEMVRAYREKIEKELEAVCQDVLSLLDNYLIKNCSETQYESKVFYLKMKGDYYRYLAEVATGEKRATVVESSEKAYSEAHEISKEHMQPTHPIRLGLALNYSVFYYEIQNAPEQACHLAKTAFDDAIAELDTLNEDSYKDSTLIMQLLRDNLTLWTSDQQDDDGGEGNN
Protocol: as §1, §2, §3

[4] = target: T4, 14-3-3ε (Homo sapiens, UniProt P62258); experiment: fluorescence polarization (FP) with FITC-labeled phosphopeptides, 14-3-3ε
T4 sequence (P62258 1-255): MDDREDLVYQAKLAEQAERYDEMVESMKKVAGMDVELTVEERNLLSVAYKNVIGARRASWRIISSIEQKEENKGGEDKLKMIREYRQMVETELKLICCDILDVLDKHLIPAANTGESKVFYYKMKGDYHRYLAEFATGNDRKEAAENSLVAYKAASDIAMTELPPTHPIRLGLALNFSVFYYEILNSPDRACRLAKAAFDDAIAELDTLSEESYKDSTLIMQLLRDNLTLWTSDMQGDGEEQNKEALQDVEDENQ
Protocol: as §1, §2, §3

[5] = target: T5, 14-3-3η (Homo sapiens, UniProt Q04917); experiment: fluorescence polarization (FP) with FITC-labeled phosphopeptides, 14-3-3η
T5 sequence (Q04917 1-246): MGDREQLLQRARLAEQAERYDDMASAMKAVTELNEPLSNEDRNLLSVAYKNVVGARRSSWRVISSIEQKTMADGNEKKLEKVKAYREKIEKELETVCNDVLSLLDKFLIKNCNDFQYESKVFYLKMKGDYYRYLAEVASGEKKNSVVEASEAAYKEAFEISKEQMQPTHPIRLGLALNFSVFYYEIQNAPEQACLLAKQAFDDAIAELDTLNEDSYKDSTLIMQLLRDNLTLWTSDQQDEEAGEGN
Protocol: as §1, §2, §3

[6] = target: T6, 14-3-3τ (Homo sapiens, UniProt P27348); experiment: fluorescence polarization (FP) with FITC-labeled phosphopeptides, 14-3-3τ
T6 sequence (P27348 1-245): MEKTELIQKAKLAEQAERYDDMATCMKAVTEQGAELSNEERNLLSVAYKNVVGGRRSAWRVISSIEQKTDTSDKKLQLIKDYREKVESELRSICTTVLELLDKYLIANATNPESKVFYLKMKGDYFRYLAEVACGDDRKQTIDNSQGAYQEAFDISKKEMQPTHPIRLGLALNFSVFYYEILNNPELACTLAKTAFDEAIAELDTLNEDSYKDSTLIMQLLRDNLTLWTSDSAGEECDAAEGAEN
Protocol: as §1, §2, §3

[7] = target: T7, 14-3-3σ (Homo sapiens, UniProt P31947); experiment: fluorescence polarization (FP) with FITC-labeled phosphopeptides, 14-3-3σ
T7 sequence (P31947 1-248): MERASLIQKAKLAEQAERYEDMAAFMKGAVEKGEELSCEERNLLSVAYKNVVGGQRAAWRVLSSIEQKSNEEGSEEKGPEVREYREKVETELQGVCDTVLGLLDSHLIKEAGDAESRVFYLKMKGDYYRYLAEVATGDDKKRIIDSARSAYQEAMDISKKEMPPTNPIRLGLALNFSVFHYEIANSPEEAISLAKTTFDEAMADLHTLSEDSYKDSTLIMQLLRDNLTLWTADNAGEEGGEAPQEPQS
Protocol: as §1, §2, §3

Row | Bmax (One site -- Specific binding, best-fit value) [1] | Bmax (One site -- Specific binding, best-fit value) [2] | Bmax (One site -- Specific binding, best-fit value) [3] | Bmax (One site -- Specific binding, best-fit value) [4] | Bmax (One site -- Specific binding, best-fit value) [5] | Bmax (One site -- Specific binding, best-fit value) [6] | Bmax (One site -- Specific binding, best-fit value) [7] | SMILES
1 | 0.1665 | 0.1453 | 0.2226 | 0.261 | 0.164 | 0.1186 | 0.9999 | CC(C)C[C@H](NC(=S)Nc1ccc2c(c1)C(=O)OC21c2ccc(O)cc2Oc2cc(O)ccc21)C(=O)N[C@@H](CCCNC(=N)N)C(=O)N[C@@H](CO)C(=O)N[C@@H](CS)C(=O)N[C@@H](COP(=O)(O)O)C(=O)N[C@H](C(=O)N[C@H](C(=O)N[C@@H](CC(=O)O)C(=O)N[C@@H](C)C(=O)N[C@H](C(=O)O)C(C)C)[C@@H](C)O)C(C)C [Nedd4-2 peptide pS342] ({FITC}-LRSC[pS]VTDAV-OH; C-terminus assumed)
2 | 1 | 0.9954 | 0.9424 | 0.7529 | 0.8968 | 0.8496 | 0.7456 | CC(C)C[C@H](NC(=O)[C@H](CO)NC(=O)[C@H](CCCNC(=N)N)NC(=O)[C@@H]1CCCN1C(=S)Nc1ccc2c(c1)C(=O)OC21c2ccc(O)cc2Oc2cc(O)ccc21)C(=O)N[C@@H](COP(=O)(O)O)C(=O)N[C@@H](CO)C(=O)N1CCC[C@H]1C(=O)N[C@H](C(=O)N[C@H](C(=O)N[C@H](C(=O)O)[C@@H](C)O)C(C)C)[C@@H](C)O [Nedd4-2 peptide pS448] ({FITC}-PRSL[pS]SPTVT-OH; C-terminus assumed)

Row | SMILES | Bmax (One site -- Specific binding, best-fit value) [1] | Bmax (One site -- Specific binding, best-fit value) [2] | Bmax (One site -- Specific binding, best-fit value) [3] | Bmax (One site -- Specific binding, best-fit value) [4] | Bmax (One site -- Specific binding, best-fit value) [5] | Bmax (One site -- Specific binding, best-fit value) [6] | Bmax (One site -- Specific binding, best-fit value) [7]
3 | CC(C)[C@H](NC(=O)[C@@H](NC(=O)[C@H](CO)NC(=O)[C@H](CO)NC(=O)[C@H](CCCNC(=N)N)NC(=O)[C@H](C)NC(=S)Nc1ccc2c(c1)C(=O)OC21c2ccc(O)cc2Oc2cc(O)ccc21)[C@@H](C)OP(=O)(O)O)C(=O)N[C@H](C(=O)NCC(=O)NCC(=O)N[C@@H](CCC(=O)O)C(=O)O)[C@@H](C)O [Nedd4-2 peptide pT367] ({FITC}-ARSS[pT]VTGGE-OH; C-terminus assumed) | 0.9561 | 1.002 | 0.9894 | 0.3092 | 0.8265 | 0.7863 | 0.1205
